The values that follow come from patent US20090220503A1, “METHOD FOR TREATING CANCERS WITH INCREASED RAS SIGNALING” (THE TRUSTEES OF BOSTON UNIVERSITY, priority 2006, published 2009).

Each structure is given as a SMILES string.

For experiment [1], the system named is MIA PaCa-2 cells. The experiment can be described thus: MTT cell proliferation assay, MIA PaCa-2. Format: cell-based, human. The settings on record: MIA PaCa-2 (mutated p21Ras), 48 h, inhibitor concentration as in Table 3. The procedure:
(§1) FIGS. 1A-1C show effects of different PKC isoform inhibitors on proliferation of mouse fibroblast cells and human pancreatic cells. Cells were grown to 80% confluence in 96-well plates, then treated with the inhibitors at the concentrations indicated in Table I. The corresponding solvents with equivalent volume were used as vehicle controls. After 48 h treatment, cell proliferation was evaluated by MTT assay. Results are presented as the means ±SD. Statistical significance was determined using a paired Student's t-test, and p-values ≦0.05 were considered significant. […] Nuclear-free lysates containing a total of 400 μg protein from each indicated cell type were used for analysis of Ras activity by Raf-RBD pull down.
(§2) All inhibitors were dissolved in dimethyl sulfoxide for use, and their effects were measured relative to dimethyl sulfoxide (vehicle)-treated controls.
(§3) Cell Culture and Treatment. NIH/3T3 and Balb cell lines were obtained from ATCC (American Type Culture Collection, Rockville, Md.). NIH/3T3-Ras cells were produced by stable transfection of v-Harvey ras, and selected and maintained in 0.5 mg/ml of Geneticin (Gibco BRL, Gaithersburg, Md.). Ki-v-ras-Balb (KBalb) cells were produced by stable infection of Balb with retroviral vector stocks containing v-Kirsten ras, and were selected and maintained with Geneticin. The human pancreatic tumor lines Hs 766s, BxPC-3 and MIA PaCa-2, were obtained from ATCC. All cell lines were maintained in Dulbecco Modified Eagle medium (DMEM) (Gibco BRL) supplemented with 2 mM 1-glutamine, 100 U/ml of penicillin, and 100 μg/ml of streptomycin (Gibco BRL). […] Cell proliferation was assessed using an MTT [3-(4,5-dimethylthiazol-2-yl)-2,5-diphenyltetrazolium bromide] assay (Roche, Mannheim, Germany). […] The optical densities were quantified at a test wavelength of 550 nm and a reference wavelength of 630 nm on a multiwell spectrophotometer. siRNA Knockdown of PKCδ. siRNA duplexes (siRNAs) were obtained from Qiagen (Valencia, Calif.). […]

Experiment [2] relates to KBalb cells. The experiment can be described thus: MTT cell proliferation assay, KBalb. Type of experiment: cell-based, mouse. The settings on record: KBalb (mutated p21Ras), 48 h, inhibitor concentration as in Table 3. Here is the method: as §1, §2, §3
Experiment [3] relates to NIH/3T3 cells. The experiment can be described thus: Apoptotic (hypodiploid) fraction by propidium iodide flow cytometry, NIH/3T3 cells expressing Ras effectors or effector mutants. Type of experiment: cell-based, mouse. Here is the method: (§4) FIGS. 4A-4D show activation of apoptosis by individual p21^Ras-effector pathways. […] Cells were fixed and stained with propidium iodide, and the apoptotic (hypodiploid) fractions were evaluated by PI staining and flow cytometric analysis using the FL2-H channel. Cells transfected with the empty pSG5 vector served as negative controls. […] NIH/3T3 cells were pre-treated for 30 minutes with Ly294002 (10 μM) before rottlerin (20 μM) was added. The apoptotic (hypodiploid) fractions were evaluated 60 h later. […] The apoptotic (hypodiploid) fractions were evaluated 60 h later. Cells were fixed and stained with propidium iodide. DNA fragmentation was analyzed by flow cytometry using the FL2-H channel.
Cell Culture and Treatment. NIH/3T3 and Balb cell lines were obtained from ATCC (American Type Culture Collection, Rockville, Md.). NIH/3T3-Ras cells were produced by stable transfection of v-Harvey ras, and selected and maintained in 0.5 mg/ml of Geneticin (Gibco BRL, Gaithersburg, Md.). Ki-v-ras-Balb (KBalb) cells were produced by stable infection of Balb with retroviral vector stocks containing v-Kirsten ras, and were selected and maintained with Geneticin. The human pancreatic tumor lines Hs 766s, BxPC-3 and MIA PaCa-2, were obtained from ATCC. All cell lines were maintained in Dulbecco Modified Eagle medium (DMEM) (Gibco BRL) supplemented with 2 mM 1-glutamine, 100 U/ml of penicillin, and 100 μg/ml of streptomycin (Gibco BRL). Media was additionally supplemented with 10% DCS (NIH/3T3, NIH/3T3-Ha-v-Ras, Balb/3T3, Ki-v-ras-Balb, and Balb-myc), or 10% FBS (BxPC-3, MIA PaCa-2). Cells were cultured at 37° C. and 5% CO2. Cell Proliferation Assay. Cell proliferation was assessed using an MTT [3-(4,5-dimethylthiazol-2-yl)-2,5-diphenyltetrazolium bromide] assay (Roche, Mannheim, Germany). […] The optical densities were quantified at a test wavelength of 550 nm and a reference wavelength of 630 nm on a multiwell spectrophotometer. siRNA Knockdown of PKCδ. siRNA duplexes (siRNAs) were obtained from Qiagen (Valencia, Calif.). […] PKCδ protein levels were determined by immunoblot analysis. […] PKCδ activity was measured with an assay kit (Upstate Cell Signaling). […] Immunocomplexes were washed three times with the kinase buffer (20 mM Tris-HCl, 10 mM MgCl2, pH 7.5) and then incubated with a PKC-specific peptide substrate, [γ-^33P]ATP, and inhibitors of cAMP-dependent kinase and calmodulin kinase for 10 min at 30° C. ^33P incorporated into the substrate was separated from residual ^33P using p81 filters and subsequently quantified by scintillation counting. β-actin antibody was used as negative control in immunoprecipitations. p21^Ras Activity Assays. […]
Background: In flow cytometry, cells or beads pass a laser one at a time.

The test system of experiment [4] is KBalb cells. The experiment can be described thus: Apoptotic (hypodiploid) fraction by propidium iodide flow cytometry, KBalb. Type of experiment: cell-based, mouse. The settings on record: 60 h. The procedure: as §4
Cell Culture and Treatment. NIH/3T3 and Balb cell lines were obtained from ATCC (American Type Culture Collection, Rockville, Md.). […] Cell proliferation was assessed using an MTT [3-(4,5-dimethylthiazol-2-yl)-2,5-diphenyltetrazolium bromide] assay (Roche, Mannheim, Germany). […] The optical densities were quantified at a test wavelength of 550 nm and a reference wavelength of 630 nm on a multiwell spectrophotometer. siRNA Knockdown of PKCδ. siRNA duplexes (siRNAs) were obtained from Qiagen (Valencia, Calif.). […] PKCδ protein levels were determined by immunoblot analysis. […] PKCδ activity was measured with an assay kit (Upstate Cell Signaling). […]

For experiment [5], the system named is Hs766T cells. As to the kind of experiment: MTT cell proliferation assay, Hs766T. The settings on record: Hs766T (wild-type p21Ras), 48 h, 20 μM. Type of experiment: cell-based, human. Here is the method: as §1, §2
(§5) Cell Culture and Treatment. NIH/3T3 and Balb cell lines were obtained from ATCC (American Type Culture Collection, Rockville, Md.). […] Cell proliferation was assessed using an MTT [3-(4,5-dimethylthiazol-2-yl)-2,5-diphenyltetrazolium bromide] assay (Roche, Mannheim, Germany). […] The optical densities were quantified at a test wavelength of 550 nm and a reference wavelength of 630 nm on a multiwell spectrophotometer. siRNA Knockdown of PKCδ. siRNA duplexes (siRNAs) were obtained from Qiagen (Valencia, Calif.). […]
In general terms: Tetrazolium assays rely on reduction of a dye to a coloured formazan, in cell work by metabolically active cells.

Experiment [6] relates to PKCδ. Type of experiment: cell-based. Here is the method: (§6) Cell Culture and Treatment. NIH/3T3 and Balb cell lines were obtained from ATCC (American Type Culture Collection, Rockville, Md.). NIH/3T3-Ras cells were produced by stable transfection of v-Harvey ras, and selected and maintained in 0.5 mg/ml of Geneticin (Gibco BRL, Gaithersburg, Md.). Ki-v-ras-Balb (KBalb) cells were produced by stable infection of Balb with retroviral vector stocks containing v-Kirsten ras, and were selected and maintained with Geneticin. The human pancreatic tumor lines Hs 766s, BxPC-3 and MIA PaCa-2, were obtained from ATCC. All cell lines were maintained in Dulbecco Modified Eagle medium (DMEM) (Gibco BRL) supplemented with 2 mM 1-glutamine, 100 U/ml of penicillin, and 100 μg/ml of streptomycin (Gibco BRL). Media was additionally supplemented with 10% DCS (NIH/3T3, NIH/3T3-Ha-v-Ras, Balb/3T3, Ki-v-ras-Balb, and Balb-myc), or 10% FBS (BxPC-3, MIA PaCa-2). Cells were cultured at 37° C. and 5% CO2. Cell Proliferation Assay. Cell proliferation was assessed using an MTT [3-(4,5-dimethylthiazol-2-yl)-2,5-diphenyltetrazolium bromide] assay (Roche, Mannheim, Germany). […] The optical densities were quantified at a test wavelength of 550 nm and a reference wavelength of 630 nm on a multiwell spectrophotometer. siRNA Knockdown of PKCδ. siRNA duplexes (siRNAs) were obtained from Qiagen (Valencia, Calif.). […]

Experiment [7] concerns PKCδ. As to the kind of experiment: Immunoblot analysis of PKCδ protein levels. Type of experiment: cell-based. The settings on record: 20 μM, 48 h, all cell lines tested. Here is the method: as §6
For experiment [8], the system named is Balb cells. As to the kind of experiment: MTT cell proliferation assay, Balb. Format: cell-based, mouse. The settings on record: Balb (wild-type p21Ras), 48 h, 20 μM. The procedure: as §1, §2, §5

Consider `CN(C)CCCn1cc(C2=C(c3c[nH]c4ccccc34)C(=O)NC2=O)c2ccccc21` [Bis-1, Bisindolylmaleimide I], for which the “cell proliferation (MTT)” value in experiment [1] and in experiment [2] was “strongly suppressed the growth” throughout.

As to `CCCCCCCCCCCCCCCCOCC(CO)OC` (stereo not shown) [HMG], the “cell proliferation (MTT)” value in experiment [1] and in experiment [2] was “strongly suppressed the growth” each time.

For `O=c1cc(N2CCOCC2)oc2c(-c3ccccc3)cccc12` [LY294002], the “decrease of apoptosis induced by rottlerin” value in experiment [3] (NIH/3T3 p110-CAAX, 20 μM pre-treatment 30 min, then rottlerin 20 μM 60 hours) was about 50%. Further, the “apoptosis induced by PKCδ inhibition blocked” value in experiment [4] (KBalb cells, pre-treatment before rottlerin 20 μM) was found to be 50%.

Regarding `COc1cccc(-c2cc(=O)c3ccccc3o2)c1N` [PD98095], the “suppression of p21Ras-dependent apoptosis” value in experiment [4] (cells with activated p21Ras, 10 μM pre-treatment, rottlerin 20 μM, lesser degree than PI3K-inhibition) is recorded as “suppressed p21^Ras-dependent apoptosis to some extent”.

`CC(=O)c1c(O)c(C)c(O)c(Cc2c(O)c3c(c(C(=O)/C=C/c4ccccc4)c2O)OC(C)(C)C=C3)c1O` [rottlerin, Rottlerin]: the “cell proliferation (MTT)” value was “dramatically and specifically decreased the proliferation” in experiment [1]; “dramatically and specifically decreased the proliferation” in experiment [2]; “stimulated proliferation” in experiment [5]; “stimulated proliferation” in experiment [8]. The “apoptosis in cells expressing p21Ras effector mutants S35, G37, C40” value in experiment [3] (20 μM, 60 h, C40 greatest) is “stimulated apoptosis to some extent”. The “apoptosis in cells expressing Raf or Ral-GEF effectors” value in experiment [3] (NIH/3T3 Raf-22W, RIF-CAAX, rottlerin 20 μM, 60 h) is “induced little apoptosis”. The compound further yielded an apoptotic frequency in experiment [3] (NIH/3T3 with activated PI3K (p110-CAAX), rottlerin 20 μM, 60 h) of 38.22%. The PKCδ activity blocked result in experiment [6] is recorded as “greater than 95%”. The “PKCδ protein levels after rottlerin” value in experiment [7] is reported as “suppressed PKCδ levels somewhat”.
